pIC50: −log10 of the molar value.
Tests used:
AGS cells (KRAS G12D) = assay: Cell viability assay (Cell Counting Kit-8), KRAS G12D; type: cell-based; conditions: Homo sapiens, 72 hrs
How it was run: (§1)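 Cells seeded overnight at 5,000/well (NCI-H358) or 2,000/well (AGS, SW620), then exposed to compound for 72 hrs at 0.5% DMSO final. CCK-8 read as OD450 minus OD650 after 2 hrs; IC50 from 4-parameter sigmoidal fit.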

[1] = test system: Miapaca-2 KRAS G12C + V8A cells; assay: Stable KRAS mutant cell line viability assay (CellTiter-Glo), G12C + V8A; type: cell-based; conditions: Homo sapiens, MIA PaCa-2, 72 h, Miapaca-2 mutant cells, 3 d
Description: (§2) The aim of the study was to determine the potency and efficacy of compounds for cell proliferation using CellTiter-Glo® (CTG) Luminescent Cell Viability Assay (Promega Corp., Madison, WI). We cloned […] KRAS^G12C variant sequences with secondary mutations (V8A, V9Y, S17E, T58I, A59T, S65W, R68S, D69P, M72I, D92R, H95N, Y96D, Q99F, Q99W, Y96H, and F156L) into the Miapaca-2. Totally 14 stable Miapaca-2 mutant cell lines were established through lentivirus infection. For the cell viability assay, cells were dosed with compounds in a 9-point dose-response using a 4 fold dilution series at a top dose of 10 μM. KRAS mutant cells were maintained in DMEM+10% FBS+2.5% HI Horse serum+1% PS+1 μg/mL Puromycin and seeded into 96-well plates at 800-1,500 cells per well 24 h before compound addition and then incubated with compound for 3 d before assaying viability (CellTiter-Glo, Promega). Assays were performed in biological duplicates. Nonlinear regression curves were fitted using Xfit. IC50 (absolute IC50) is the dose at which the estimated viability is 50% relative to untreated wells.

[2] = test system: Miapaca-2 KRAS G12C + A59T cells; assay: Stable KRAS mutant cell line viability assay (CellTiter-Glo), G12C + A59T; type: cell-based; conditions: Homo sapiens, MIA PaCa-2, 72 h, Miapaca-2 mutant cells, 3 d
Description: as §2

[3] = test system: Miapaca-2 KRAS G12C + Y96D cells; assay: Stable KRAS mutant cell line viability assay (CellTiter-Glo), G12C + Y96D; type: cell-based; conditions: Homo sapiens, MIA PaCa-2, 72 h, Miapaca-2 mutant cells, 3 d
Description: as §2

[4] = test system: Miapaca-2 KRAS G12C + D60P cells; assay: Stable KRAS mutant cell line viability assay (CellTiter-Glo), G12C + D60P; type: cell-based; conditions: Homo sapiens, MIA PaCa-2, 72 h, Miapaca-2 mutant cells, 3 d
Description: as §2

[5] = test system: Miapaca-2 KRAS G12C + F156L cells; assay: Stable KRAS mutant cell line viability assay (CellTiter-Glo), G12C + F156L; type: cell-based; conditions: Homo sapiens, MIA PaCa-2, 72 h, Miapaca-2 mutant cells, 3 d
Description: as §2

KRAS G12D-BRAF complex = KRAS G12D-BRAF complex (Homo sapiens (Human), UniProt P01116+P62937, G12D); assay: KRAS-BRAF with CYPA (500 nM) interaction assay (TR-FRET), G12D; type: biochemical
KRAS G12D-BRAF complex, sequence (P01116-2 other isoform, or with tags, fused parts or gaps G12D): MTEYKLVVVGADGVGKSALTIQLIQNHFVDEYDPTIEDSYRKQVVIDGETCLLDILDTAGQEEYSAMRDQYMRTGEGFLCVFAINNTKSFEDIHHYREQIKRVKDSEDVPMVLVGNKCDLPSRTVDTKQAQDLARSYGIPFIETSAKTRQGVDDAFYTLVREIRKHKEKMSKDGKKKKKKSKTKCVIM
KRAS G12D-BRAF complex, sequence (P62937 whole entry): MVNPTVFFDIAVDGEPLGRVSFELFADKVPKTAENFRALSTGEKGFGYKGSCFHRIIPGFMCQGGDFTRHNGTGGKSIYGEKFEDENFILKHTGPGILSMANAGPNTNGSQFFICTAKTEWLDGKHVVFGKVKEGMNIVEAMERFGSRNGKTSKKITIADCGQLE
How it was run: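 TR-FRET read of compound- or compound-CYPA-driven disruption of BRAF binding by KRAS G12C, G12D or G12V, with CYPA at 500 nM. Compounds tested as 16-point 3-fold dilutions from 10 μM final, incubated 3 hours. Ex320/Em 665/615 nm ratio drop relative to DMSO wells marks disruption.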

[6] = test system: Miapaca-2 KRAS G12C + S17E cells; assay: Stable KRAS mutant cell line viability assay (CellTiter-Glo), G12C + S17E; type: cell-based; conditions: Homo sapiens, MIA PaCa-2, 72 h, Miapaca-2 mutant cells, 3 d
Description: as §2

[7] = Single dose pharmacokinetics (PK) study in female BALB/c mice; type: in vivo
Method: The purpose of this study was to determine the pharmacokinetics of selected compounds following single intravenous bolus or oral gavage administration in female BALB/c mice. Briefly, two groups of female BALB/c mice (available from Shanghai Lingchang Biotechnology Co., Ltd)(N=3/group) were treated with a single dose of compound intravenously at 3 mg/kg (IV) or orally at 30 mg/kg (PO). Blood samples were collected at 5 min (only for IV), […], 30 min, 1 h, 2 h, 4 h, 7 h and 24 h post-dose. Blood samples were placed on ice until centrifugation to obtain plasma samples. The concentration of compound in plasma samples was determined using LC-MS/MS method. The pharmacokinetic parameters were calculated by non-compartmental analysis.

[8] = test system: Miapaca-2 KRAS G12C + R68S cells; assay: Stable KRAS mutant cell line viability assay (CellTiter-Glo), G12C + R68S; type: cell-based; conditions: Homo sapiens, MIA PaCa-2, 72 h, Miapaca-2 mutant cells, 3 d
Description: as §2

[9] = test system: Miapaca-2 KRAS G12C + M72I cells; assay: Stable KRAS mutant cell line viability assay (CellTiter-Glo), G12C + M72I; type: cell-based; conditions: Homo sapiens, MIA PaCa-2, 72 h, Miapaca-2 mutant cells, 3 d
Description: as §2

[10] = test system: Miapaca-2 KRAS G12C + Q99W cells; assay: Stable KRAS mutant cell line viability assay (CellTiter-Glo), G12C + Q99W; type: cell-based; conditions: Homo sapiens, MIA PaCa-2, 72 h, Miapaca-2 mutant cells, 3 d
Description: as §2

SW620 cells (KRAS G12V) = assay: Cell viability assay (Cell Counting Kit-8), KRAS G12V; type: cell-based; conditions: Homo sapiens, SW-620, SW620, 72 hrs
How it was run: as §1

[11] = test system: Miapaca-2 KRAS G12C + T58I cells; assay: Stable KRAS mutant cell line viability assay (CellTiter-Glo), G12C + T58I; type: cell-based; conditions: Homo sapiens, MIA PaCa-2, 72 h, Miapaca-2 mutant cells, 3 d
Description: as §2

[12] = mouse, 30 mg/kg, po, female BALB/c mice, plasma

CO[C@@H](C)c1ncc(N2CCN(CC(F)(F)F)CC2)cc1-c1c2c3cc(ccc3n1CC(F)(F)F)-c1csc(n1)C[C@H](NC(=O)[C@H](C(C)C)N(C)C(=O)N1CCOCC1)C(=O)N1CCC[C@H](N1)C(=O)OCC(C)(C)C2 (atropisomer, axis not shown; (M)) [Example 6]
pIC50 (AGS cells (KRAS G12D)): 7.70
pIC50 [1]: 8.70
pIC50 [2]: 7.96
pIC50 [3]: 8.15
pIC50 [4]: 8.10
pIC50 [5]: 8.10
pIC50 (KRAS G12D-BRAF complex): 7.15
pIC50 [6]: 8.30
F ([7]; 30 mg/kg, po, female BALB/c mice): 29.7%
AUC0-last compared with compound A555 ([7]; 30 mg/kg, po, mouse model): 15 folds
Cmax compared with compound A555 ([7]; 30 mg/kg, po, mouse model): ~7 folds
clearance ([7]; mouse, 3 mg/kg, iv, female BALB/c mice, plasma): 3.7 mL/min/kg
AUC(0-t) [7, 12]: 36800 ng·h/mL
Cmax [7, 12]: 4890 ng/mL
pIC50 [8]: 7.47
pIC50 [9]: 8.52
pIC50 [10]: 8.15
pIC50 (SW620 cells (KRAS G12V)): 8.70
pIC50 [11]: 8.15

— patent publication US20250268894A1, “MACROCYCLE COMPOUNDS FOR THE TREATMENT OF CANCER” (Hoffmann-La Roche Inc., priority 2022, published 2025)
